Source: patent US20260091082A1, “CYCLIC PEPTIDE DERIVATIVE COMPOSITION FOR TREATING OR PREVENTING EYE DISEASE” (DKS Co. Ltd., priority 2022, published 2026)
Where “and” joins values, the source holds several entries; their conditions need not be identical. Equal entries are not always repeated.

Key:
[1] = General condition observation (clinical signs) in anterior chamber aqueous humor pressure load rat model; assay type: in vivo, Rat; Slc: SD; design: key: —: No anormal sign; details: 10 mg/mL intravenous, once about 30 minutes before ischemic load, animals 401-410 (test group 4), per animal
Description: (§1) • Species and strains: Rat; Slc: SD • Number of animals on arrival and sex: 50 males • Age in weeks at arrival: 6 weeks old • Body weight range at arrival: 147.2 to 170.0 g • Source: Japan SLC, Inc.
The body weight of the animals was measured at a frequency of once a week or more, and the general condition observation was performed every day.
(§2) • Administration route: Eyedrop administration, intravenous administration • Administration method (eyedrop): Eyedrop administration was performed on a treated eye (right eye) of a rat using a micropipette 4 times a day (at intervals of 1.5 hours or more). • Administration method (intravenous): The amount of administration solution, calculated from the body weight on the day of administration, was administered from the tail vein using a syringe and an injection needle about 30 minutes before ischemic load. • Time of administration: Administration was performed according to the following schedule.

[2] = system: anterior chamber aqueous humor pressure load rat model; assay: Retinal thickness (IPL, INL, ONL) in retinal damage model induced by anterior chamber aqueous humor pressure load; assay type: in vivo, Rat; Slc: SD; details: 10 mg/mL intravenous, right eye
Description: • Name: Compound 9 • Source: Synthesized in the above Examples • Used amount: 0.4 mL (50 mg/mL solution) • Storage conditions: Freezing, light shielding
Method for preparing test substance (1 mg/mL): A high concentration solution prepared at 50 mg/mL was diluted 50 times with a medium to prepare a 1 mg/mL administration solution.
• Name: MK-801 • Distributor: SIGMA-ALDRICH • Use amount: 0.0501 g • Storage condition: refrigerated (2° C. to 8° C.)
Method for preparing positive control substance (10 mg/mL): 0.0501 g was weighed out and made up to a total volume of 5 mL with a control substance (physiological saline).
as §1
Grouping was performed two days before the first creation of the retinal damage model induced by an anterior chamber aqueous humor pressure load. Using the daily body weight as an index, stratified random allocation was performed using SAS (Ver. 9.3, SAS Institute Japan Ltd.) and EXSUS (Ver. 8.0, CAC Croit Corporation) so that an average value of the body weights of each group was approximately uniform.
as §2
1. 10 mg/kg xylazine hydrochloride was intramuscularly administered on the model creation day (day 0). A rat was placed in an anesthesia box and subjected to general anesthesia with isoflurane (5%, oxygen:nitrous oxide=1:3). When anesthesia was effective, the rat was taken out of the anesthesia box, an inhalation anesthetic mask was worn, and anesthesia was maintained with isoflurane (1% to 5%, oxygen nitrous oxide=1:3).
2. The body temperature was maintained at 37° C. with a warming mat, and a mydrin P ophthalmic solution was instilled in the right eye (treated eye) of the rat to dilate the pupil, then the cravit ophthalmic solution 1.5% (Santen Pharmaceutical Co., Ltd.) was instilled.
3. A bottle of an IV bag containing physiological saline was previously suspended so that a water surface was 155 cm (100 mmHg or more) higher than the eye of the rat. The IV bag was connected to a pediatric infusion set (Terumo Corporation), a 27 G injection needle thereof was inserted into and fixed to the anterior chamber while slightly dripping the liquid from a needle tip. The model was created in the light phase (6:00 to 18:00) in consideration of the diurnal variation of the intraocular pressure.
4. After the needle was inserted into the anterior chamber, pressure (100 mmHg or more) was loaded and maintained in the anterior chamber by associating the reflux system.
5. After an ischemic load for 45 minutes, the injection needle and the like were removed, the inhalation anesthetic mask was removed, and the rat was sufficiently woken up under a warming mat, and then returned to the cage.
6. For 2 days after surgery, 10 mg/kg xylazine hydrochloride was intramuscularly administered as an analgesic for the purpose of alleviating the pain after the treatment.
1. Fourteen days after model creation, general anesthesia was performed with isoflurane (5%, oxygen:nitrous oxide=1:3), euthanasia was then performed by exsanguination, a suture was placed as a marker at the 12 o'clock position of the ocular conjunctiva, and eyeball enucleation was performed.
2. […]

[3] = 300 μm from optic disk, individual measurements per animal
[4] = 300 μm from optic disk, mean per animal

C[C@]12N[C@H](Cc3ccccc31)c1ccccc12 [MK-801, reference compound]
Clinical signs ([1]; Day 0): —
Clinical signs ([1]; Day 1): —
Clinical signs ([1]; Day 2): —
Clinical signs ([1]; Day 3): —
Clinical signs ([1]; Day 4): —
Clinical signs ([1]; Day 5): —
Clinical signs ([1]; Day 6): —
Clinical signs ([1]; Day 7): —
Clinical signs ([1]; Day 8): —
Clinical signs ([1]; Day 9): —
Clinical signs ([1]; Day 10): —
Clinical signs ([1]; Day 11): —
Clinical signs ([1]; Day 12): —
Clinical signs ([1]; Day 13): —
Clinical signs ([1]; Day 14 (day of necropsy)): —
Clinical signs ([1]; Day −1): —
Clinical signs ([1]; Day −2): —
Thickness of INL (μm), Distance from Optic Disk 300 μm [2, 3]: 43.354 μm and 38.856 μm and 38.516 μm and 27.422 μm (2×) and 28.629 μm and 30.645 μm and 26.920 μm and 25.120 μm and 24.650 μm and 35.504 μm and 33.881 μm and 32.856 μm and 27.965 μm and 24.925 μm and 25.788 μm and 20.485 μm and 25.262 μm and 25.607 μm and 23.821 μm and 27.016 μm and 25.835 μm and 27.670 μm and 26.395 μm and 24.758 μm and 25.159 μm and 24.873 μm and 35.703 μm and 32.278 μm and 31.627 μm
Thickness of IPL (μm), Distance from Optic Disk 300 μm [2, 3]: 47.608 μm and 50.434 μm and 48.521 μm and 38.326 μm and 39.132 μm and 40.728 μm and 36.614 μm and 38.136 μm and 36.780 μm and 37.923 μm and 37.097 μm and 36.446 μm and 38.879 μm and 37.066 μm and 37.189 μm and 34.034 μm and 34.084 μm and 33.182 μm and 34.736 μm and 31.462 μm and 32.671 μm and 35.348 μm and 37.744 μm and 37.108 μm and 43.612 μm and 37.515 μm and 38.865 μm and 37.237 μm and 35.429 μm and 37.489 μm
Thickness of INL (μm), Distance from Optic Disk 300 μm, Mean [2, 4]: 40.242 μm and 28.899 μm and 25.563 μm and 34.080 μm and 26.226 μm and 23.785 μm and 25.557 μm and 27.162 μm and 24.930 μm and 33.203 μm
Thickness of IPL (μm), Distance from Optic Disk 300 μm, Mean [2, 4]: 48.854 μm and 39.395 μm and 37.177 μm and 37.155 μm and 37.711 μm and 33.767 μm and 32.956 μm and 36.733 μm and 39.997 μm and 36.718 μm
Thickness of INL (μm), Distance from Optic Disk 600 μm ([2]; 600 μm from optic disk, individual measurements per animal): 38.743 μm and 36.612 μm and 29.504 μm and 25.885 μm and 27.808 μm and 31.247 μm and 41.632 μm and 47.024 μm and 32.661 μm and 30.741 μm and 27.960 μm and 28.852 μm and 19.795 μm and 16.209 μm and 32.381 μm and 32.162 μm and 24.755 μm and 25.923 μm (2×) and 32.268 μm and 39.011 μm and 36.780 μm and 28.629 μm and 32.351 μm and 44.795 μm and 30.775 μm and 27.268 μm and 20.418 μm and 31.364 μm and 35.532 μm
